The text below walks through data of patent publication US5691344A, “Vasoconstrictive substituted dihydropyranopyridines” (Janssen Pharmaceutica, N.V., priority 1993, dated 1997).

Structures are written as SMILES. pEC50: −log10 of the molar value. Structures can show the parent of a compound that is named as a salt.

The test system of this test is basilar arteries. The test is described as follows: Constriction of isolated basilar artery segments of pigs (serotonin-like response, % of response to serotonin). The following applies: Sus scrofa; constrictive response expressed as percentage of previous response to serotonin (3×10^-7 M); Krebs-Henseleit solution, 37° C.; read-out: IC50 (the source's name). An excerpt: The compounds of formula (I), the pharmaceutically acceptable acid-additionsalts and stereochemically isomeric forms thereof have interesting pharmacological properties: they show 5HT1-like agonistic activity. The compounds of the present invention have a remarkable vasoconstrictor activity. They are useful to prevent and treat conditions which are related to vasodilatation. For instance, they are useful in the treatment of conditions characterized by or associated with cephalic pain, e.g. cluster headache and headache associated with vascular disorders, especially migraine. These compounds are also useful in the treatment of venous insufficiency and in the treatment of conditions associated with hypotension. The vasoconstrictor activity of the compounds of formula (I) can be determined using an in vitro-test as is described in "Instantaneous changes of alpha-adrenoreceptor affinity caused by moderate cooling in canine cutaneous veins" in the American Journal of Physiology 234(4), H330-H337, 1978; or in the test described in the pharmacological example, wherein the serotonin-like response of the compounds of the present invention was tested on the basilar arteries of pigs.
Segments of basilar arteries taken from pigs (anaesthetised with sodium pentobarbital) were mounted for recording of isometric tension in organ baths. The preparations were bathed in Krebs--Henseleit solution. The solution was kept at 37° C. and gassed with a mixture of 95% O2 -5% CO2. The preparations were stretched until a stable basal tension of 2 grams was obtained.
The preparations were made to constrict with serotonin (3×10^-7 M). The response to the addition of serotonin was measured and subsequently the serotonin was washed away. This procedure was repeated until stable responses were obtained. Subsequently the test compound was administered to the organ bath and the constriction of the preparation was measured. This constrictive response was expressed as a percentage of the response to serotonin as measured previously.
Regarding `c1cnc(NCCCNCC2CCc3cccnc3O2)nc1` (racemic) [Co. No. 1, (±)-N-[(3,4-dihydro-2H-pyrano[2,3-b]-pyridin-2-yl)methyl]-N'-2-pyrimidinyl-1,3-propanediamine trihydrochloride. 2-propanolate(1:1). monohydrate], the pEC50 was 7.15.
In the case of `c1cnc2c(c1)CCC(CNCCCNC1=NCCCN1)O2` (racemic) [Co. No. 2, N-[(3,4-dihydro-2H-pyrano[2,3-b]pyridin-2-yl)methyl]-N'-(1,4,5,6-tetrahydro-2-pyrimidinyl)-1,3-propanediamine dihydrochloride. 2-propanolate (2:1). monohydrate] it was 6.89; in that of `[O-][n+]1cccc2c1OC(CNCCCNc1ncccn1)CC2` (racemic) [Co. No. 3, (±)-N-(3,4-dihydro-2H-pyrano[2,3-b]pyridon-2-yl)methyl]-N'-2-pyrimidinyl-1,3-propanediamine, N-oxide ethanedioate (2:1). monohydrate], 6.47.
For `CSc1nccc(NCCCNCC2CCc3cccnc3O2)n1` (racemic) [Co. No. 5], the pEC50 was 6.59.
Next, `c1ccc(NCCCNCC2CCc3cccnc3O2)nc1` (racemic) [Co. No. 6]: 6.92.
